Measured values from ChEMBL document CHEMBL4270527, “Discovery of phenylsulfonylfuroxan derivatives as gamma globin inducers by histone acetylation” (Eur J Med Chem, 2018).
One block for each compound: values may come before it. Activity calls are given as the source filed them. The calls are words filed in the database; no cut-off is given here.

How the values were obtained:
Platelet = experiment: Antiplatelet activity in Wistar rat platelet rich plasma assessed as inhibition of ADP-induced platelet aggregation at 100 uM pretreated for 1 min followed by ADP addition by turbidimetric method relative to control; format: functional
Macrophage [1] = experiment: Cytotoxicity against LPS-induced Swiss albino mouse macrophages assessed as cell viability at 6.2 to 50 uM after 24 hrs by MTT assay relative to control; format: functional
Mus musculus = experiment: Antinociceptive activity in Swiss albino mouse assessed as decrease in number of acetic acid-induced abdominal constriction at 100 umol/kg, po pretreated for 1 hr followed by acetic-acid challenge for 10 mins measured for 20 mins relative to control; format: functional; design: scale not given: the % may be the effect or the level left
Macrophage [2] = experiment: Inhibition of LPS-induced TNFalpha production in Swiss albino mouse macrophages at 50 uM after 24 hrs by ELISA relative to control; format: functional
Macrophage [3] = experiment: Inhibition of LPS-induced TNFalpha production in Swiss albino mouse macrophages at 25 uM after 24 hrs by ELISA relative to control; format: functional
Macrophage [4] = experiment: Inhibition of LPS-induced TNFalpha production in Swiss albino mouse macrophages at 12.5 uM after 24 hrs by ELISA relative to control; format: functional
CHO-K1 [5] = experiment: Mutagenicity in CHOK1 cells assessed as nuclear division index at 25 uM after 24 hrs by Giemsa staining based microscopic analysis (reference value: 1.701 +/- 0.002); format: toxicity, cell-based, Cricetulus griseus; conditions: chinese hamster, cho-k1, 24 h
CHO-K1 [6] = experiment: Genotoxicity in CHOK1 cells assessed as increase in tail moment at 25 to 100 uM after 24 hrs by commet assay; format: toxicity, cell-based, Cricetulus griseus; conditions: chinese hamster, cho-k1, 24 h
CHO-K1 [7] = experiment: Mutagenicity in CHOK1 cells assessed as frequency of micronucleus binucleated cells at 25 to 100 uM after 24 hrs by Giemsa staining based microscopic analysis; format: toxicity, cell-based, Cricetulus griseus; conditions: chinese hamster, cho-k1, 24 h
Macrophage [8] = experiment: Inhibition of LPS-induced TNFalpha production in Swiss albino mouse macrophages at 6.2 uM after 24 hrs by ELISA relative to control; format: functional
[9] = Stability of the compound in pH 7.4 phosphate buffered saline assessed as compound hydrolysis after 4 hrs by UV-HPLC analysis; format: physicochemical; conditions: read-out: Drug degradation
CHO-K1 [10] = experiment: Mutagenicity in CHOK1 cells assessed as nuclear division index at 50 uM after 24 hrs by Giemsa staining based microscopic analysis (reference value: 1.701 +/- 0.002); format: toxicity, cell-based, Cricetulus griseus; conditions: chinese hamster, cho-k1, 24 h
CHO-K1 [11] = experiment: Cytotoxicity against CHOK1 cells assessed as reduction in cell viability at 100 uM after 24 hrs by XTT assay relative to control; format: cell-based, Cricetulus griseus; conditions: chinese hamster, cho-k1, 24 h
CHO-K1 [12] = experiment: Mutagenicity in CHOK1 cells assessed as frequency of micronucleus at 25 to 100 uM after 24 hrs by Giemsa staining based microscopic analysis; format: toxicity, cell-based, Cricetulus griseus; conditions: chinese hamster, cho-k1, 24 h
CHO-K1 [13] = experiment: Mutagenicity in CHOK1 cells assessed as nuclear division index at 100 uM after 24 hrs by Giemsa staining based microscopic analysis (reference value: 1.701 +/- 0.002); format: toxicity, cell-based, Cricetulus griseus; conditions: chinese hamster, cho-k1, 24 h
CHO-K1 [14] = experiment: Genotoxicity in CHOK1 cells assessed as increase in commet tail at 100 uM after 24 hrs by commet assay; format: toxicity, cell-based, Cricetulus griseus; conditions: chinese hamster, cho-k1, 24 h
CHO-K1 [15] = experiment: Cytotoxicity against CHOK1 cells assessed as reduction in cell viability at 50 uM after 24 hrs by XTT assay relative to control; format: cell-based, Cricetulus griseus; conditions: chinese hamster, cho-k1, 24 h
[16] = biological target: Histone H4 (Homo sapiens) (UniProt P62805); experiment: Activation of histone H4 acetylation in human K562 cells at 6.7 to 100 uM after 24 hrs by Western blot analysis; format: cell-based
K562 [17] = experiment: Activation of histone H3 acetylation in human K562 cells at 6.7 to 100 uM after 24 hrs by Western blot analysis; format: cell-based
CHO-K1 [18] = experiment: Cytotoxicity against CHOK1 cells assessed as reduction in cell viability at 25 uM after 24 hrs by XTT assay relative to control; format: cell-based, Cricetulus griseus; conditions: chinese hamster, cho-k1, 24 h
[19] = biological target: MAP kinase p38 (Homo sapiens) (UniProt O15264+Q15759+Q16539+P53778); experiment: Activation of p38 MAPK phosphorylation in human K562 cells at 6.7 to 100 uM by Western blot analysis; format: cell-based
K562 [20] = experiment: Activation of histone H3/H4 acetylation in human K562 cells assessed as increase in […] expression at 25 to 100 uM after 96 hrs by Western blot analysis; format: cell-based
K562 [21] = experiment: Activation of histone H3/H4 acetylation in human K562 cells assessed as increase in […] expression at 6.7 to 12.5 uM after 48 hrs by Western blot analysis; format: cell-based
K562 [22] = experiment: Activation of histone H3 acetylation in human K562 cells at 100 uM after 24 hrs by Western blot analysis; format: cell-based
K562 [23] = experiment: Activation of histone H3/H4 acetylation in human K562 cells assessed as induction of […] production at 100 uM after 96 hrs by Western blot analysis; format: cell-based
CHO-K1 [24] = experiment: Mutagenicity in CHOK1 cells assessed as nuclear division index at 0.3 ug/ml after 24 hrs by Giemsa staining based microscopic analysis (reference value: 1.701 +/- 0.002); format: toxicity, cell-based, Cricetulus griseus; conditions: chinese hamster, cho-k1, 24 h

Compound: O=C(N/N=C/c1ccc2no[n+]([O-])c2c1)c1ccc(N2C(=O)c3ccccc3C2=O)cc1
inhibition at 100 µM (Platelet): 2.8%
Activity (Macrophage [1]): >75%
Activity (Mus musculus): 48.3%
inhibition at 50 µM (Macrophage [2]): 54.5%
inhibition at 25 µM (Macrophage [3]): 99.5%
inhibition at 12.5 µM (Macrophage [4]): 99.9%

degraded at 4 h [9]: 30%
Activity [16]: inactive
Activity [19]: inactive
Compound: O=C(N/N=C/c1ccc(Oc2no[n+]([O-])c2S(=O)(=O)c2ccccc2)cc1)c1ccc(N2C(=O)c3ccccc3C2=O)cc1
Activity_index (CHO-K1 [5]): 1.691
Activity (CHO-K1 [6]): Non-Toxic
Activity (CHO-K1 [7]): Non-Toxic
inhibition at 6.2 µM (Macrophage [8]): 41%
inhibition at 100 µM (Platelet): 76.1%
Activity (Macrophage [1]): >75%
Activity (Mus musculus): 50.1%
Activity_index (CHO-K1 [10]): 1.69
Activity (CHO-K1 [11]): <= 30%
Activity (CHO-K1 [12]): Non-Toxic
inhibition at 25 µM (Macrophage [3]): 76.5%
Activity_index (CHO-K1 [13]): 1.697
Activity (CHO-K1 [14]): Non-Toxic
Activity (CHO-K1 [15]): 14%
Activity (K562 [17]): Active
Activity (CHO-K1 [18]): 4%
inhibition at 12.5 µM (Macrophage [4]): 54.2%
Activity (K562 [20]): Active

Compound: O=C(N/N=C/c1c(-c2ccccc2)no[n+]1[O-])c1ccccc1N1C(=O)c2ccccc2C1=O
inhibition at 100 µM (Platelet): 17.2%
Activity (Mus musculus): 36.2%

Compound: O=C(N/N=C/c1ccc2no[n+]([O-])c2c1)c1ccccc1N1C(=O)c2ccccc2C1=O
inhibition at 100 µM (Platelet): 0%
Activity (Mus musculus): 30.5%

Compound: O=C(N/N=C/c1c(-c2ccccc2)no[n+]1[O-])c1ccc(N2C(=O)c3ccccc3C2=O)cc1
inhibition at 100 µM (Platelet): 26.5%
Activity (Macrophage [1]): >75%
Activity (Mus musculus): 44.8%

Activity [16]: Active
Activity [19]: inactive
Compound: O=C(N/N=C/c1cccc(Oc2no[n+]([O-])c2S(=O)(=O)c2ccccc2)c1)c1ccc(N2C(=O)c3ccccc3C2=O)cc1
inhibition at 6.2 µM (Macrophage [8]): 61%
inhibition at 100 µM (Platelet): 84%
Activity (K562 [21]): Active
Activity (Macrophage [1]): >75%
Activity (Mus musculus): 42%
inhibition at 25 µM (Macrophage [3]): 73.6%
Activity (K562 [22]): Active
inhibition at 12.5 µM (Macrophage [4]): 64.9%
Activity (K562 [23]): Active

Compound: Cc1c(N(C)CS(=O)(=O)[O-])c(=O)n(-c2ccccc2)n1C.[Na+] [DIPYRONE SODIUM]
Activity (Mus musculus): 35%

Compound: COc1cccc2c1C(=O)c1c(O)c3c(c(O)c1C2=O)C[C@@](O)(C(=O)CO)C[C@@H]3O[C@H]1C[C@H](N)[C@H](O)[C@H](C)O1 [DOXORUBICIN]
Activity_index (CHO-K1 [24]): 1.683

Compound: O=C(N/N=C/c1ccc2no[n+]([O-])c2c1)c1cccc(N2C(=O)c3ccccc3C2=O)c1
inhibition at 100 µM (Platelet): 1.2%
Activity (Macrophage [1]): >75%
Activity (Mus musculus): 40.5%

Compound: O=C1CCC(N2C(=O)c3ccccc3C2=O)C(=O)N1 (configuration not stated) [THALIDOMIDE]
inhibition at 50 µM (Macrophage [2]): 31.7%

Compound: CC(=O)Oc1ccccc1C(=O)O [ASPIRIN]
inhibition at 100 µM (Platelet): 5%
